Measurements taken from article PMC9828044 (RSC Advances, 2023).

Columns and labels:
MAO A = target: T1, MAO A (Rattus norvegicus, UniProt P21396); assay: Monoamine oxidase A; type: biochemical; settings: for dual inhibition on MAO A and MAO B: both isoforms; for dual inhibition on MAO A and MAO B / selective inhibition toward MAO A: in words; for inhibition at 100 µM: read-out: MAO A % inhibition; for selective inhibition toward MAO A: MAO A versus MAO B
T1 sequence (P21396 1-526): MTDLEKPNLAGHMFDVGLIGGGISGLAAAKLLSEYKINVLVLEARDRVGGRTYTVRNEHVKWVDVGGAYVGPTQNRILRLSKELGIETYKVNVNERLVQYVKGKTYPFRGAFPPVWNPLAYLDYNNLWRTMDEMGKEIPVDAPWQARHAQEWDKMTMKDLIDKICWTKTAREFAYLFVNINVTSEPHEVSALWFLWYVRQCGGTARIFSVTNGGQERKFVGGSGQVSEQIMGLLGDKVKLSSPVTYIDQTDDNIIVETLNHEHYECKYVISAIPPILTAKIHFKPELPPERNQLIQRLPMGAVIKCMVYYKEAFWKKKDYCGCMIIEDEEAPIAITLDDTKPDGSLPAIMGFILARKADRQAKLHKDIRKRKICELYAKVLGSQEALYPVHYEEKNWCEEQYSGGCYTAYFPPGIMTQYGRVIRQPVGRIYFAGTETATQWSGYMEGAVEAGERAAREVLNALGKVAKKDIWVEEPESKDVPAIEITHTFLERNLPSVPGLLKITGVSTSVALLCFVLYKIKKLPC

MAO B = target: T2, MAO B (Rattus norvegicus, UniProt P19643); assay: Monoamine oxidase B; type: biochemical; settings: for inhibition at 100 µM: read-out: MAO B % inhibition; for selective inhibition toward MAO B: MAO B versus MAO A, in words
T2 sequence (P19643 1-520): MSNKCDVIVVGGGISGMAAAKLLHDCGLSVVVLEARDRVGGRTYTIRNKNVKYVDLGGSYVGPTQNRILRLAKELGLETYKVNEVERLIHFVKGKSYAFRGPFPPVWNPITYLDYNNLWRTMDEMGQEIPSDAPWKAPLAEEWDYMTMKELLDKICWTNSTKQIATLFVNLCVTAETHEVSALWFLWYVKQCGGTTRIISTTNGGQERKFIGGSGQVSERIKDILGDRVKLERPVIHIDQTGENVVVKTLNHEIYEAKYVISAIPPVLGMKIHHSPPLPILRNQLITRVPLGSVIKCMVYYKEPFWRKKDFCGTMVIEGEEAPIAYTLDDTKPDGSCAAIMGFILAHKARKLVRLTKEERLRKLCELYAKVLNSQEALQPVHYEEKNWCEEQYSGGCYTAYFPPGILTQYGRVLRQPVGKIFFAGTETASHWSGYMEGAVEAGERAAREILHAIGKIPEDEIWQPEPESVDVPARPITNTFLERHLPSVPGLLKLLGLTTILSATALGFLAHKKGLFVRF

SMILES	inhibition at 100 µM (MAO A)	dual inhibition on MAO A and MAO B (MAO A)	further results
Cc1ccc2cc(C=NN=C3CS(=O)(=O)N(C)c4ccccc43)c(Cl)nc2c1 [7d, 4-(((2-Chloro-7-methylquinolin-3-yl)methylene)hydrazono)-1-methyl-3,4-dihydro-1H-benzo[c][1,2]thiazine 2,2-dioxide]		dual inhibition on MAO A as well as MAO B	
Cc1ccc2nc(Cl)c(C=NN=C3CS(=O)(=O)N(C)c4ccccc43)cc2c1 [7b, 4-(((2-Chloro-6-methylquinolin-3-yl)methylene)hydrazono)-1-methyl-3,4-dihydro-1H-benzo[c][1,2]thiazine 2,2-dioxide]		dual inhibition on MAO A as well as MAO B	
CN1c2ccccc2C(=NN=Cc2cc3ccc(Cl)cc3nc2Cl)CS1(=O)=O [7f, 4-(((2,7-Dichloroquinolin-3-yl)methylene)hydrazono)-1-methyl-3,4-dihydro-1H-benzo[c][1,2]thiazine 2,2-dioxide]	2.03 ± 0.91%	dual inhibition on MAO A as well as MAO B	
CN1c2ccccc2C(=NN=Cc2cc3ccccc3nc2Cl)CS1(=O)=O [7a, 4-(((2-Chloroquinolin-3-yl)methylene)hydrazono)-1-methyl-3,4-dihydro-1H-benzo[c][1,2]thiazine 2,2-dioxide]	38.8%		inhibition at 100 µM (MAO B): 43.6%
CC(=NN=C1CS(=O)(=O)N(C)c2ccccc21)c1ccc(Cl)s1 [9g, 4-((1-(5-Chlorothiophen-2-yl)ethylidene)hydrazono)-1-methyl-3,4-dihydro-1H-benzo[c][1,2]thiazine 2,2-dioxide]		dual inhibition on MAO A as well as MAO B	
COc1ccc2nc(Cl)c(C=NN=C3CS(=O)(=O)N(C)c4ccccc43)cc2c1 [7c, 4-(((2-Chloro-6-methoxyquinolin-3-yl)methylene)hydrazono)-1-methyl-3,4-dihydro-1H-benzo[c][1,2]thiazine 2,2-dioxide]			selective inhibition toward MAO A (MAO A): significant selective inhibition toward MAO A; inhibition at 100 µM (MAO B): 35.8%
CC(=NN=C1CS(=O)(=O)N(C)c2ccccc21)c1sccc1Cl [9e, 4-((1-(3-Chlorothiophen-2-yl)ethylidene)hydrazono)-1-methyl-3,4-dihydro-1H-benzo[c][1,2]thiazine 2,2-dioxide]			inhibition at 100 µM (MAO B): 41.9%
CC(=NN=C1CS(=O)(=O)N(C)c2ccccc21)c1cc(Cl)sc1Cl [9k, 4-((1-(2,5-Dichlorothiophen-3-yl)ethylidene)hydrazono)-1-methyl-3,4-dihydro-1H-benzo[c][1,2]thiazine 2,2-dioxide]		dual inhibition on MAO A as well as MAO B	
CC(=NN=C1CS(=O)(=O)N(C)c2ccccc21)c1ccc(C)s1 [9d, 1-Methyl-4-((1-(5-methylthiophen-2-yl)ethylidene)hydrazono)-3,4-dihydro-1H-benzo[c][1,2]thiazine 2,2-dioxide]			selective inhibition toward MAO A (MAO A): significant selective inhibition toward MAO A; inhibition at 100 µM (MAO B): 31.1%
COc1ccc2cc(C=NN=C3CS(=O)(=O)N(C)c4ccccc43)c(Cl)nc2c1 [7e, 4-(((2-Chloro-7-methoxyquinolin-3-yl)methylene)hydrazono)-1-methyl-3,4-dihydro-1H-benzo[c][1,2]thiazine 2,2-dioxide]		dual inhibition on MAO A as well as MAO B	

The next lines start with results.

inhibition at 100 µM (MAO A)	SMILES	dual inhibition on MAO A and MAO B (MAO A)	further results
39.1%	CC(=NN=C1CS(=O)(=O)N(C)c2ccccc21)c1cc(C)cs1 [9c, 1-Methyl-4-((1-(4-methylthiophen-2-yl)ethylidene)hydrazono)-3,4-dihydro-1H-benzo[c][1,2]thiazine 2,2-dioxide]		
28.4%	CC(=NN=C1CS(=O)(=O)N(C)c2ccccc21)c1ccc(Br)s1 [9h, 4-((1-(5-Bromothiophen-2-yl)ethylidene)hydrazono)-1-methyl-3,4-dihydro-1H-benzo[c][1,2]thiazine 2,2-dioxide]		selective inhibition toward MAO B (MAO B): selective inhibition toward the MAO B enzyme
2.09 ± 0.89%	CC(=NN=C1CS(=O)(=O)N(C)c2ccccc21)c1cccs1 [9a, 1-Methyl-4-((1-(thiophen-2-yl)ethylidene)hydrazono)-3,4-dihydro-1H-benzo[c][1,2]thiazine 2,2-dioxide]		
41.6%	CC(=NN=C1CS(=O)(=O)N(C)c2ccccc21)c1sccc1Br [9f, 4-((1-(3-Bromothiophen-2-yl)ethylidene)hydrazono)-1-methyl-3,4-dihydro-1H-benzo[c][1,2]thiazine 2,2-dioxide]		selective inhibition toward MAO B (MAO B): selective inhibition toward the MAO B enzyme
38.5%	CC(=NN=C1CS(=O)(=O)N(C)c2ccccc21)c1sccc1C [9b, 1-Methyl-4-((1-(3-methylthiophen-2-yl)ethylidene)hydrazono)-3,4-dihydro-1H-benzo[c][1,2]thiazine 2,2-dioxide]		
26.3%	CC(=NN=C1CS(=O)(=O)N(C)c2ccccc21)c1cc(C)sc1C [9j, 4-((1-(2,5-Dimethylthiophen-3-yl)ethylidene)hydrazono)-1-methyl-3,4-dihydro-1H-benzo[c][1,2]thiazine 2,2-dioxide]		selective inhibition toward MAO B (MAO B): selective inhibition toward the MAO B enzyme
39.8%	CC(=NN=C1CS(=O)(=O)N(C)c2ccccc21)c1ccc([N+](=O)[O-])s1 [9i, 1-Methyl-4-((1-(5-nitrothiophen-2-yl)ethylidene)hydrazono)-3,4-dihydro-1H-benzo[c][1,2]thiazine 2,2-dioxide]		selective inhibition toward MAO B (MAO B): selective inhibition toward the MAO B enzyme
